In patent EP2258370A1, “Treatment of malignant diseases” (Medizinische Universität Wien, priority 2009, dated 2010):

Tests used:
[1] = test system: SW620 cells; assay: SW620 human colon cancer xenograft in athymic nude mice; details: 100µg/day for 2 weeks, intraperitoneal osmotic minipump from day 8, day 22; for mean tumour weight: control 793; for Mean tumour weight (±SD): control 793 ± 328 mg
Experimental: 8 x 10^6 SW620 cells/100µl PBS were injected subcutaneously into the left flank. […] Control mice received osmotic pumps filled with Ringer's solution. All mice were sacrificed on day 22 and tumour weights were then determined.

[2] = test system: SW620 (colon carcinoma); assay: Cell proliferation assay (WST-1); type: cell-based; details: 25 and 50 µM, 24 h, 48 h and 72 h, WST-1, Figs. 2a-f
Experimental: (§1) Rac-1 inhibitor compounds were tested in cell proliferation assays performed with following cancer cell lines: MCF7 (mammary carcinoma), SW620 (colon carcinoma), CRL 2505 (prostate carcinoma). The level of proliferation was measured at 24 hours (h), 48 h and 72 h after in vitro induction of compounds. Two different concentrations of compounds were tested for each cell line (25 and 50 µM, see Figs. 2a-f; the asteriks indicates significant change versus control group (no compound induction) at all incubation points (p<0.02)).
(§2) The proliferation assay was performed with Cell Proliferation Reagent WST-1 (Roche Cat. No. 1644 807). The cells were cultured 2 x 10^4 cells/well in microplates (96 wells, flat bottom). The Cell Proliferation Reagent WST-1 (10 µl/well) was added to each experimental group (Figs. 2a-f). After 4 hours of incubation (37°C) the absorbance was measured by Microplate (ELISA) reader at 450 nm optical density (OD). The reference wavelength was 620 nm.
(§3) All experimental compounds (compounds 1, 2, 3-10, 18, 53) were solved in 1% DMSO solution. Therefore, additional experimental group (1% DMSO) was used to examine proliferation activity of used cell lines in presence of 1% DMSO.
(§4) All measurements were corrected to the blank absorbance (medium with 10 µl Cell Proliferation Reagent WST-1, no cells).

[3] = test system: CRL 2505 (prostate carcinoma); assay: Cell proliferation assay (WST-1); type: cell-based; details: 25 and 50 µM, 24 h, 48 h and 72 h, WST-1, Figs. 2a-f
Experimental: as §1, §2, §3, §4

[4] = test system: MCF7 (mammary carcinoma); assay: Cell proliferation assay (WST-1); type: cell-based; details: 25 and 50 µM, 24 h, 48 h and 72 h, WST-1, Figs. 2a-f
Experimental: as §1, §2, §3, §4

[5] = test system: MCF-7 cells; assay: MCF-7 human breast cancer xenograft in athymic nude mice; type: in vivo; details: intraperitoneal osmotic minipump from day 24, day 38, control 210 ± 31 mg
Experimental: On the indicated days, tumour sizes were determined with a caliper and tumour volumes calculated according to the following formula: tumour volume = [(length x width^2) x […]].
All mice were sacrificed on day 38 and tumour weights were then determined.

[6] = test system: PC-3; details: Rac-hyperactive prostate cancer cells; cited from earlier work

Row | Compound | Mean tumour weight (% of control (co)) [1] | mean tumour weight [1] | Mean tumour weight (±SD) [1] | inhibiting proliferation of the tumour cells [2] | inhibiting proliferation of the tumour cells [3] | inhibiting proliferation of the tumour cells [4] | mean tumour weight ([5]; 25µg per day) | mean tumour weight ([5]; 50µg per day) | mean tumour weight ([5]; 100µg per day) | proliferation, anchorage independent growth, and invasion [6]
1 | CCN(CC)CCCC(C)Nc1nc(C)cc(NCCc2c[nH]c3ccccc23)n1 (stereo not shown) [Compound 1, N2-(4-Diethylamino-1-methyl-butyl)-N4-[2-(1H-indol-3-yl)-ethyl]-6-methyl-pyrimidine-2,4-diamine] | 74 % of control (co) | 583 mg | 583 ± 151 mg | effective in inhibiting proliferation | effective in inhibiting proliferation | effective in inhibiting proliferation | – | – | – | –
2 | CCN(CC)CCCC(C)Nc1nc(C)cc(NCCc2c[nH]c3ccc(O)cc23)n1 (racemic) [Compound 2, 3-{2-[2-(4-Diethylamino-1-methyl-butylamino)-6-methyl-pyrimidin-4-ylamino]-ethyl}-1H-indol-5-ol] | 77 % of control (co) | 612 mg | 612 mg | effective in inhibiting proliferation | effective in inhibiting proliferation | effective in inhibiting proliferation | 185 ± 54 mg | 152 ± 70 mg | 118 ± 60 mg | –
3 | CCN(CC)CCCC(C)Nc1nc(C)cc(Nc2ccc3nc(C)cc(N)c3c2)n1 (racemic) [NSC23766, N6-(2-((4-(diethylamino)-1-methylbutyl)amino)-6-methyl-4-pyrimidinyl)-2-methyl-4,6-quinolinediamine, reference compound] | 107 % of control (co) | 846 mg | 846 ± 256 mg | – | – | – | – | – | – | able to inhibit proliferation, anchorage independent growth, and invasion
